Experiment [1] deals with P. aeruginosa biofilms. The experiment in a line: Biofilm growth assay (spreading biofilm on semi-solid agar), P. aeruginosa. The experiment is classed as cell-based. The note with it: biofilm growth assay, overnight 37° C., vs negative controls, Tables 1-5; for IC85: Pseudomonas aeruginosa, read-out: P. aeruginosa: concentration that reduces the area of the spreading biofilm by greater than or equal to 85%. The text has this: (§1) “Biofilm Growth Assay” refers to an assay performed on semi-solid agar surface where the bacteria collectively move out from an inoculation point. To those skilled in the art, the act of bacteria collectively moving out from an inoculation point on a semi-solid surface may be referred to as swarming or a spreading biofilm. (Anderson, et al Microbiology, 2003, 149, 37-46; Daniels, et al. FEMS Microbiology Reviews, 2004, 28, 261-289). The procedure to perform this assay is described in detail in the Examples. This type of surface motility by bacteria has been reported in the literature by those skilled in the art. […] These references are incorporated herein by reference in their entirety.
(§2) The biofilm growth assay was carried out to measure swarming or biofilm spreading on semi-solid agar media in round plates (for example, 100×15 mm), also referred to as Petri dishes. For E. coli, the plates contained LB medium with 0.6% agar and 0.5% glucose. P. aeruginosa plates were made with M8 agar supplemented with 0.2% glucose, 100 μM CaCl2, 1 mM MgSO4, and 0.5% Casamino acids. The agar plates of this assay consisted of 0.4% to 0.7% agar (Bacto or Noble agar), although other media may also be used as described in the literature and known to those skilled in the art. Test compounds at the desired concentration were added to the cooled, autoclaved media. Portions of the media were then poured into the plates (20 mL/plate), and the plates allowed to dry at room temperature for approximately 3 to 4 hours. Alternatively, however, plates may be dried in a laminar flow hood for approximately fifteen to twenty minutes. Overnight cultures were grown in a 37° C. shaker in LB (E. coli) or TSB (P. aeruginosa). Plates were inoculated by placing 5 μL of the appropriate overnight culture in the centers of the plates. The plates then were incubated overnight at 37° C. The area of the zone of spreading bacteria was then measured and replicates are averaged. Percent inhibition was calculated as 100×(area without compound−area with compound)/(area without compound). An active compound was considered that which reduces the area of the spreading biofilm compared to negative controls by greater than or equal to 85%. The values shown in Table 1 are the concentrations of compounds (μg/ml) tested in the biofilm growth assay that reduce the area of the spreading biofilm compared to negative controls by greater than or equal to 85% unless noted differently in Table 1. A > (“greater than” symbol) as used in Table 1 is well understood to those skilled in the art as an indication that the listed concentration was not effective at this concentration.
(§3) All of the compounds shown in Tables 2, 3, 4, and 5, below, were prepared semi-synthetically from oleanolic acid, except for Compounds 2 and 3. Compound 2 was prepared from ursolic acid. Compound 3 was prepared from hederagenin, but could also be prepared from an oleanolic acid analog with a hydroxyl at C23 or C24. These compounds were tested in the spreading biofilm assay according to the methods detailed in Example I, above. The values shown in Tables 2, 3, 4, and 5 are the concentrations of compounds tested in the biofilm growth assay that reduce the area of the spreading biofilm compared to negative controls by greater than or equal to 85%.

Experiment [2] concerns E. coli biofilms. The experiment in a line: Biofilm growth assay (spreading biofilm on semi-solid agar), E. coli. It is filed as cell-based. The note with it: biofilm growth assay, overnight 37° C., vs negative controls, Tables 1-5; for IC85: Escherichia coli, read-out: E. coli: concentration that reduces the area of the spreading biofilm by greater than or equal to 85%.
Text: as §1, §2, §3

Values after ≈ are worked out from the molar mass of the structure shown.

Take `CC1(C)CC[C@]2(C(=O)O)CC[C@]3(C)C(=C(c4ccc(N5CCOCC5)nc4)CC4[C@@]5(C)Cc6c(n[nH]c6N)C(C)(C)[C@@H]5CC[C@]43C)[C@@H]2C1` (stereo partly drawn) [Example 54, (4aS,6aS,6bR,8aR,13aR,15bS)-12-Amino-2,2,6a,6b,9,9,13a-heptamethyl-15-(6-morpholinopyridin-3-yl)-2,3,4,4a,5,6,6a,6b,7,8,8a,9,11,13,13a,13b,14,15b-octadecahydro-1H-chryseno[1,2-f]indazole-4-a-carboxylic acid]: in experiment [1], the “P. aeruginosa: concentration that reduces the area of the spreading biofilm by greater than or equal to 85%” value is 1 µg/mL. In addition, the “E. coli: concentration that reduces the area of the spreading biofilm by greater than or equal to 85%” value in experiment [2] worked out at 2 µg/mL.
For `CC1(C)CC[C@]2(C(=O)O)CC[C@]3(C)C(=C(c4coc(CN5CCOCC5)c4)CC4[C@@]5(C)Cc6c(n[nH]c6N)C(C)(C)[C@@H]5CC[C@]43C)[C@@H]2C1` (stereo partly drawn) [Example 40, (4aS,6aS,6bR,8aR,13aR,15bS)-12-Amino-2,2,6a,6b,9,9,13a-heptamethyl-15-(5-(morpholinomethyl)furan-3-yl)-2,3,4,4a,5,6,6a,6b,7,8,8a,9,11,13,13a,13b,14,15b-octadecahydro-1H-chryseno[1,2-f]indazole-4-a-carboxylic acid], in experiment [1], the “P. aeruginosa: concentration that reduces the area of the spreading biofilm by greater than or equal to 85%” value came to 0.5 µg/mL. Further, the “E. coli: concentration that reduces the area of the spreading biofilm by greater than or equal to 85%” value in experiment [2] amounted to 2 µg/mL.
With `CC1(C)CC[C@]2(C(=O)Nc3cc(O)[nH]n3)CC[C@]3(C)C(=CCC4[C@@]5(C)Cc6c(n[nH]c6N)C(C)(C)C5CC[C@]43C)C2C1` (stereo partly drawn) [Compound 66, (4aS,6aS,6bR,13aR)-12-Amino-N-(5-hydroxy-1H-pyrazol-3-yl)-2,2,6a,6b,9,9,13a-heptamethyl-2,3,4,4a,5,6,6a,6b,7,8,8a,9,11,13,13a,13b,14,15b-octadecahydro-1H-chryseno[1,2-f]indazole-4-a-carboxamide], the IC85 in experiment [1] amounted to 0.25 µg/mL (≈ 0.435 µM); in experiment [2] it was 1 µg/mL (≈ 1.74 µM).
Taken in the same sequence, the figures for `CC1(C)CC[C@]2(C(=O)O)CC[C@]3(C)C(=CCC4[C@@]5(C)CC6=NCN=C6C(C)(C)C5CC[C@]43C)C2C1` (stereo partly shown) [F] were 4 µg/mL (≈ 8.36 µM) and greater than 8 µg/mL.
As for `CC1(C)CC[C@]2(C(=O)O)CC[C@]3(C)C(=C(c4ccc(N)c(F)c4)CC4[C@@]5(C)Cc6c(n[nH]c6N)C(C)(C)C5CC[C@]43C)C2C1` (stereo partly drawn) [Example 31, (4aS,6aS,6bR,13aR)-12-Amino-15-(4-amino-3-fluorophenyl)-2,2,6a,6b,9,9,13a-heptamethyl-2,3,4,4a,5,6,6a,6b,7,8,8a,9,11,13,13a,13b,14,15b-octadecahydro-1H-chryseno[1,2-f]indazole-4-a-carboxylic acid], in experiment [1], the “P. aeruginosa: concentration that reduces the area of the spreading biofilm by greater than or equal to 85%” value is 0.5 µg/mL. The “E. coli: concentration that reduces the area of the spreading biofilm by greater than or equal to 85%” value in experiment [2] was 1 µg/mL.
Consider `C[C@H]1[C@H](C)CC[C@]2(CO)CC[C@]3(C)C(=CC[C@@H]4[C@@]5(C)CC[C@H](O)C(C)(C)[C@@H]5CC[C@]43C)[C@H]12` [Uvaol, reference compound], for which the IC85 is greater than 128 µg/mL in experiment [1] and greater than 8 µg/mL in experiment [2].
Take `CN1CCN(c2ccc(C3=C4C5CC(C)(C)CC[C@]5(C(=O)O)CC[C@@]4(C)[C@]4(C)CCC5C(C)(C)c6n[nH]c(N)c6C[C@]5(C)C4C3)cn2)CC1` (stereo partly drawn) [Example 56, (4aS,6aS,6bR,13aR)-12-Amino-2,2,6a,6b,9,9,13a-heptamethyl-15-(6-(4-methylpiperazin-1-yl)pyridin-3-yl)-2,3,4,4a,5,6,6a,6b,7,8,8a,9,11,13,13a,13b,14,15b-octadecahydro-1H-chryseno[1,2-f]indazole-4-a-carboxylic acid]: in experiment [1], the “P. aeruginosa: concentration that reduces the area of the spreading biofilm by greater than or equal to 85%” value stood at 1 µg/mL. For the same compound, in experiment [2], the “E. coli: concentration that reduces the area of the spreading biofilm by greater than or equal to 85%” value amounted to 2 µg/mL.
Taken in the same sequence, the figures for `Cc1c([C@]23CCC(C)(C)CC2C2=CCC4[C@@]5(C)Cc6c(n[nH]c6N)C(C)(C)C5CC[C@@]4(C)[C@]2(C)CC3)n[nH]c1O` (stereo partly drawn) [Compound 82, 3-((4aS,6aS,6bR,13aR)-12-Amino-2,2,6a,6b,9,9,13a-heptamethyl-2,3,4,4a,5,6,6a,6b,7,8,8a,9,11,13,13a,13b,14,15b-octadecahydro-1H-chryseno[1,2-f]indazol-4-a-yl)-4-methyl-1H-pyrazol-5-ol] were 0.5 µg/mL and 1 µg/mL.
Consider `CC1(C)CC[C@]2(C(=O)Nc3nnc(S(N)(=O)=O)s3)CC[C@]3(C)C(=CCC4[C@@]5(C)Cc6c(n[nH]c6N)C(C)(C)C5CC[C@]43C)C2C1` (stereo partly drawn) [Compound 80, (4aS,6aS,6bR,13aR)-12-Amino-2,2,6a,6b,9,9,13a-heptamethyl-N-(5-sulfamoyl-1,3,4-thiadiazol-2-yl)-2,3,4,4a,5,6,6a,6b,7,8,8a,9,11,13,13a,13b,14,15b-octadecahydro-1H-chryseno[1,2-f]indazole-4-a-carboxamide], for which, in experiment [1], the “P. aeruginosa: concentration that reduces the area of the spreading biofilm by greater than or equal to 85%” value is 1 µg/mL. Also, the “E. coli: concentration that reduces the area of the spreading biofilm by greater than or equal to 85%” value in experiment [2] was 1 µg/mL.
Lupeol [reference compound]: the “P. aeruginosa: concentration that reduces the area of the spreading biofilm by greater than or equal to 85%” value in experiment [1] was greater than 16 µg/mL. In experiment [2], the “E. coli: concentration that reduces the area of the spreading biofilm by greater than or equal to 85%” value was greater than 8 µg/mL.
Consider `CC1(C)CC[C@]2(C(=O)Sc3nnc(N)[nH]3)CC[C@]3(C)C(=CCC4[C@@]5(C)Cc6c(n[nH]c6N)C(C)(C)C5CC[C@]43C)C2C1` (stereo partly drawn) [Compound 70, (4aS,6aS,6bR,13aR)—S-5-Amino-4H-1,2,4-triazol-3-yl12-amino-2,2,6a,6b,9,9,13a-heptamethyl-2,3,4,4a,5,6,6a,6b,7,8,8a,9,11,13,13a,13b,14,15b-octadecahydro-1H-chryseno[1,2-f]indazole-4-a-carbothioate], for which the IC85 in experiment [1] was determined as 0.5 µg/mL (≈ 0.845 µM); in experiment [2], 2 µg/mL (≈ 3.38 µM).
Take `CC1(C)CC[C@]2(C(=O)O)CC[C@]3(C)C(=C(c4cccc(C(N)=O)c4)CC4[C@@]5(C)Cc6c(n[nH]c6N)C(C)(C)C5CC[C@]43C)C2C1` (stereo partly drawn) [Example 19, (4aS,6aS,6bR,13aR)-12-Amino-15-(3-carbamoylphenyl)-2,2,6a,6b,9,9,13a-heptamethyl-2,3,4,4a,5,6,6a,6b,7,8,8a,9,11,13,13a,13b,14,15b-octadecahydro-1H-chryseno[1,2-f]indazole-4-a-carboxylic acid]: the “P. aeruginosa: concentration that reduces the area of the spreading biofilm by greater than or equal to 85%” value in experiment [1] worked out at 1 µg/mL. Moreover, the “E. coli: concentration that reduces the area of the spreading biofilm by greater than or equal to 85%” value in experiment [2] is 1 µg/mL.
On to `CC1(C)CC[C@]2(C(=O)O)CC[C@]3(C)C(=C(c4ccc(N5CCOCC5)cc4)CC4[C@@]5(C)Cc6c(n[nH]c6N)C(C)(C)C5CC[C@]43C)C2C1` (stereo partly drawn) [Example 51, (4aS,6aS,6bR,13aR)-12-Amino-2,2,6a,6b,9,9,13a-heptamethyl-15-(4-morpholinophenyl)-2,3,4,4a,5,6,6a,6b,7,8,8a,9,11,13,13a,13b,14,15b-octadecahydro-1H-chryseno[1,2-f]indazole-4-a-carboxylic acid], for which the “P. aeruginosa: concentration that reduces the area of the spreading biofilm by greater than or equal to 85%” value in experiment [1] amounted to 0.5 µg/mL. Further, the “E. coli: concentration that reduces the area of the spreading biofilm by greater than or equal to 85%” value in experiment [2] is 2 µg/mL.
As for `CN(C)c1ccc(C2=C3[C@@H]4CC(C)(C)CC[C@]4(C(=O)O)CC[C@@]3(C)[C@]3(C)CC[C@H]4C(C)(C)c5n[nH]c(N)c5C[C@]4(C)C3C2)cc1` (stereo partly drawn) [Example 10, (4aS,6aS,6bR,13aR)-12-Amino-15-(4-(dimethylamino)phenyl)-2,2,6a,6b,9,9,13a-heptamethyl-2,3,4,4a,5,6,6a,6b,7,8,8a,9,11,13,13a,13b,14,15b-octadecahydro-1H-chryseno[1,2-f]indazole-4-a-carboxylic acid], the IC85 amounted to 0.5 µg/mL (≈ 0.816 µM) in experiment [1] and 1 µg/mL (≈ 1.63 µM) in experiment [2].

(Values after US8324264B1, “Inhibitors of bacterial biofilms and related methods” (Sequoia Sciences, Inc., priority 2011, dated 2012).)
